# Experimental data as given in ChEMBL document CHEMBL1148320, “Characterization of a ligand-receptor binding event using receptor-dependent four-dimensional quantitative structure-activity relationship analysis” (J Med Chem, 2004).
# Biological target: glycogen phosphorylase b, muscle (Oryctolagus cuniculus) (UniProt P00489)
# Sequence (P00489 whole entry, looked up): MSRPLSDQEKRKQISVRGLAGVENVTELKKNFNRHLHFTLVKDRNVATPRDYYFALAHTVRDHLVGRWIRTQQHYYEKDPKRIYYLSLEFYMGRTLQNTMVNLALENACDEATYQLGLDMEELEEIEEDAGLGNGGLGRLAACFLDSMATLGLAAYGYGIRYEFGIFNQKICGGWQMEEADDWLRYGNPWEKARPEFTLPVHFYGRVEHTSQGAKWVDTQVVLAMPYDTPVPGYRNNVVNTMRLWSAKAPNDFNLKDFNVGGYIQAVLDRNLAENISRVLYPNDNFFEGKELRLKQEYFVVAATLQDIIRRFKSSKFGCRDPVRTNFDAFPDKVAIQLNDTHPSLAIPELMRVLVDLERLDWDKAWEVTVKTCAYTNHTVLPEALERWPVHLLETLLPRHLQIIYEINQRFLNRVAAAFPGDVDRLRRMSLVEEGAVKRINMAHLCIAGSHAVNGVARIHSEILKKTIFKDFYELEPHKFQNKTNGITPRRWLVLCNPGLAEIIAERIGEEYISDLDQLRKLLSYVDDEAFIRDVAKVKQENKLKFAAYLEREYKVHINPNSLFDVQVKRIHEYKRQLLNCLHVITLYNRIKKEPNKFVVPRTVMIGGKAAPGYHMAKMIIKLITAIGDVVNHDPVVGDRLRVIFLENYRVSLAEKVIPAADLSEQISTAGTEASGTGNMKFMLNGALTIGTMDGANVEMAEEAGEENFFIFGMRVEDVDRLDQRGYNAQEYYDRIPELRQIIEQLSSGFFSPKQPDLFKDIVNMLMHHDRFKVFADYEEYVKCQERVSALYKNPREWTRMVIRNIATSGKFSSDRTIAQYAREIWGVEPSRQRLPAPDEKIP
row,Structure (SMILES),Ki [µM]
1,"CNNC(=O)C1O[C@H](CO)[C@@H](O)[C@H](O)[C@H]1O (single isomer, unassigned)",1800
2,"CCC(=O)NC1O[C@H](CO)[C@@H](O)[C@H](O)[C@H]1O (single isomer, unassigned)",39
3,"NC(=O)CSC1O[C@H](CO)[C@@H](O)[C@H](O)[C@H]1O (single isomer, unassigned)",21100
4,OC[C@H]1S[C@H](O)[C@H](O)[C@@H](O)[C@@H]1O,2000
5,OC[C@H]1O[C@@](O)(CO)[C@H](O)[C@@H](O)[C@@H]1O,15800
6,"CCCC(=O)NC1O[C@H](CO)[C@@H](O)[C@H](O)[C@H]1O (single isomer, unassigned)",94
7,"O=C(CSC1O[C@H](CO)[C@@H](O)[C@H](O)[C@H]1O)Nc1ccc(F)cc1F (single isomer, unassigned)",18900
8,"O=C(CCl)NC1O[C@H](CO)[C@@H](O)[C@H](O)[C@H]1O (single isomer, unassigned)",45
9,"O=C(CSC1O[C@H](CO)[C@@H](O)[C@H](O)[C@H]1O)Nc1ccccc1 (single isomer, unassigned)",3600
10,"NC(=O)NC1O[C@H](CO)[C@@H](O)[C@H](O)[C@H]1O (single isomer, unassigned)",140
11,"CC(=O)NCC(=O)NC1O[C@H](CO)[C@@H](O)[C@H](O)[C@H]1O (single isomer, unassigned)",990
